Patent US9895337B2, “Compositions containing monoacetyldiacylglycerol compound as an active ingredient for preventing or treating rheumatoid arthritis” (ENZYCHEM LIFESCIENCES CORPORATION, priority 2013, dated 2018)

Legend:
[1] = tested on: STAT-1; assay: Inhibition of PMA-induced STAT-1 phosphorylation in NK-92 cells (western blot); format: cell-based, Human; details: PMA-induced (FIG. 2B)
Procedure: Human cell lines NK-92, U937, A549 and HepG2 (American Type Culture Collection, ATCC, Rockville, Md.) were cultured at 37° C. under 5% CO2 humid conditions. NK-92 cells were cultured in alpha-MEM media (Life Technologies, Karlsruhe, Germany) containing 10% Fetal Calf Serum (FCS, HyClone, Logan, Utah), 2 mM […], 100 μg/ml penicillin, 100 μg/ml streptomycin (Life Technologies). U937, A549 and HepG2 cells were cultured in RPMI media containing 10% Fetal Calf Serum.
Cells treated in EC-18 and PMA (Phobol 12-myristate 13-acetate) were lysed with cold SDS lysis buffer [(50 mM HEPES, 150 mM NaCl, 0.2 mM EDTA, 0.5% NP-40, 0.1% SDS, 1 mM Na3VO4, 10 mM NaF, and complete Protein Inhibitor Cocktail (Roche)] for 30 minutes on ice. After cell lysis, the aqueous solution was separated from the insoluble precipitate by centrifuging the cell lysates for 30 minutes at 13,000 rpm in a high-speed centrifuge. After protein quantification, the aqueous solution was separated in 10 to 12% SDS-PAGE by electrophoresis. Proteins separated in the gel were transferred into PVDF membrane (Millipore, Billerica, Mass., USA) at 100V for 2 hours. […]

[2] = tested on: collagen-induced arthritis in male DBA/1J mouse; assay: Arthritis animal model induced by bovine type II collagen; format: in vivo; details: for histopathological arthritis score of knee joint: knee joint of both hind legs, vs negative control (FIG. 6); for histopathological arthritis score of knee joint / concentration of IL-6 in serum: EC-18 125, 500, 2,000 mg/kg oral, Remicade 20 mg/kg i.p., methotrexate 2.5 mg/kg oral; for concentration of IL-6 in serum: serum at day of tissue excision, once a day for five weeks, vs negative control (FIG. 4)
Procedure: For arthritis animal model experiment, arthritis was induced in male DBA/1J mouse by administering bovine type II collagen to the mouse. Efficacy of EC-18 for treating (or improving) arthritis was evaluated by repeatedly administering EC-18 to the mouse orally. For comparison, Remicade (positive control 1) was administered intraperitoneally and methotrexate (positive control 2) was administered orally. The experiment included seven groups: normal group (G1), negative control (G2), 125 mg/kg, 500 mg/kg and 2,000 mg/kg of EC-18 (EC-18 treatment groups, G3, G4, G5), 20 mg/kg of Remicade (Positive control 1, G6) and 2.5 mg/kg of Methotrexate (Positive control 2, G7). Each group consists of 10 mice. Olive oil was administered to normal group (G1) and negative control group (G2) as an excipient. In all groups, administration was made once a day for five weeks (a total of 35 administrations). Remicade (G6) was administered intraperitoneally, whereas EC-18, methotrexate and olive oil were administered orally in force. For all groups except normal Group (G1), arthritis was induced by immunizing animals twice with bovine type II collagen and complete Freund's adjuvant or incomplete Freund's adjuvant emulsion. During the observation period, common arthritis symptoms were observed once a day, weigh measured once a week, arthritic score evaluation made with the naked eye twice a week, foot thickness measured twice a week.

Molecule | STAT-1 phosphorylation [1] | histopathological arthritis score of knee joint [2] | concentration of IL-6 in serum [2] | crushing of cartilage and increase of Pannus (stained arthritic tissue) ([2]; EC-18 500 mg/kg oral (G4), Remicade 20 mg/kg i.p. (G6), vs negative control (FIGS. 7 and 8))
CCCCC/C=C\C/C=C\CCCCCCCC(=O)OC(COC(C)=O)COC(=O)CCCCCCCCCCCCCCC (stereo not drawn) [EC-18, 1-palmitoyl-2-linoleoyl-3-acetylglycerol] | does not inhibit |  |  | 
CN(Cc1cnc2nc(N)nc(N)c2n1)c1ccc(C(=O)N[C@@H](CCC(=O)O)C(=O)O)cc1 [Methothrexate, methotrexate] |  | reduced | reduced | 
Remicade: positive control 1, administered intraperitoneally at 20 mg/kg |  | reduced | reduced | reduced
